What was measured:
[1] = system: C57BL/6J male mice; test: Hot plate model; format: in vivo; conditions: 10 mg/kg i.p.
Protocol: Thermal nociception in the hot plate test was assessed with a commercially available apparatus (Hotplate Analgesia Meter, Columbus Instruments) consisting of a metal plate to a constant temperature of 55.0 ± 0.1 °C. Mice were put into the hot plate testing instrument to adapt for at least 15 min. The device was connected to a manually operated timer that recorded the amount of time the mouse spent on the heated surface before showing signs of nociception (e.g., licked its paws or jumped), the cut-off time was 60 s. The baseline (basic pain threshold, the response was more than 25 s, and the jumping mice were excluded.) was calculated as the mean of three readings recorded before testing at intervals of 15 min. The time course of latency was then determined at 15, 30, 45, 60, 90, and 120 min after compound treatment. Data were analyzed as time-course curves of the percentage of maximum effect MPE% = (post drug latency − baseline latency) × 100/(cut-off time − baseline latency). C57BL/6J male mice obtained from The Jackson Laboratory (Bar Harbor, ME, USA) weighing 28 g were used for the hot plate test. Animal procedures were conducted following the rules and regulations of the Institutional Animal Care and Use Committee of the National Institute on Alcohol Abuse and Alcoholism (NIAAA) under the protocols of LPS-GK1.

[2] = system: mice; test: LPS-induced acute lung injury (ALI) model; format: in vivo; conditions: 10 mg/kg i.p.
Protocol: LPS-induced acute lung injury induced by a single oropharyngeal instillation of lipopolysaccharide (LPS) (50 µg/mouse) in 16-week-old mice as described previously. Briefly, LPS (L4391, MilliporeSigma, Burlington, MA, USA) was dissolved in sterile saline and administered at 50 µg/mouse in 40 µL after anesthesia induced by ketamine/xylazine. The mice were studied 24 h after LPS or saline instillation.
BALF was collected from anesthetized mice by lavaging lungs two times with 0.8 mL Hanks’ balanced salt solution without calcium and magnesium (HBSS) (Sigma-Aldrich, St. Louis, MI, USA). Supernatants were collected as BALF for further analyses.
The number of cells in the BALF was estimated using an automated cell counter, the Countess II FL cell counter (Thermo Fisher Scientific Inc., Waltham, MA, USA).
Albumin levels were measured by the Mouse Albumin Elisa Assay kit (Cat # E99-134), which was obtained from Bethyl Laboratories. BALF samples from the LPS group were diluted at a 1:2000 ratio.
Total protein in BALF samples was measured using the Pierce BCA protein assay kit (Cat # 23225) as detailed in the product manual (Thermo Fisher Scientific).
The right middle lobe was immediately placed in an RNA later solution and stored at −80 °C until the RNA extraction procedure. RNA extraction was performed using RNeasy Mini Kits from Qiagen (Valencia, CA, USA). One microgram of total RNA was reverse transcribed to cDNA using an iScript cDNA synthesis kit (Bio-Rad, Hercules, CA, USA). Expression of the target genes was quantified using gene-specific primers and PowerSYBRGreen master mix (Thermo Fisher Scientific) in a QuantStudio 3 Real-Time PCR instrument (Thermo Fisher Scientific). Predesigned mouse IL-6 (QT00098875), TNF-α (QT00104006), IL-1β (QT01048355), CXCL1 (QT00115647), CCL2 (QT00167832), CXCL3 (QT00151599) and CXCL9 (QT00097062) primers were purchased from Qiagen (Valencia, CA, USA). Fold changes in gene expression relative to the housekeeping gene TATA-Box Binding Protein (Tbp, QT00198443) were determined. Gene expression values were calculated based on the […] method.

[3] = biological target: T1, human recombinant sEH (Homo sapiens, UniProt P34913); test: Fluorescence-based sEH activity assay (PHOME substrate), human enzyme; format: biochemical; conditions: for IC50: dose-dependent assay, read-out: Human sEH Inhibition IC50
T1 construct: purchased Cayman Chemical 10011671
T1 sequence (P34913 1-555): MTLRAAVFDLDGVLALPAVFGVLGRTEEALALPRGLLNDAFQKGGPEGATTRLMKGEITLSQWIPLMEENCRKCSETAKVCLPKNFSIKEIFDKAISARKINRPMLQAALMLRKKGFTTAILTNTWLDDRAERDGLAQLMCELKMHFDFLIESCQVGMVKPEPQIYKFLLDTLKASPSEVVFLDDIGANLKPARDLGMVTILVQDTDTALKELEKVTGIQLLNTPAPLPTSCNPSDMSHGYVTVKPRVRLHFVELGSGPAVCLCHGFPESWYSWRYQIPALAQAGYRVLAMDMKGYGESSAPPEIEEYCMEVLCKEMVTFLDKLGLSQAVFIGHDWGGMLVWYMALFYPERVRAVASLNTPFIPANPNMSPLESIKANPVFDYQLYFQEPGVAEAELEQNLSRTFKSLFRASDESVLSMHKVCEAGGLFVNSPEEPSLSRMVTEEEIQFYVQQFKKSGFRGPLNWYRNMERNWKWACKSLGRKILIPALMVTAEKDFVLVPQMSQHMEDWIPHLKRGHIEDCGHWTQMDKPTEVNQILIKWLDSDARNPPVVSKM
Protocol: A fluorescence-based sEH activity assay provided a convenient method for screening human epoxide hydrolase inhibitors. The assay utilized (3-Phenyl-oxiranyl)-acetic acid cyano-(6-methoxy-naphthalen-2-yl)-methyl ester (PHOME) as a substrate. […] The inhibitory function of the compounds on sEH activity was tested as detailed in the product manual from Cayman Chemical. Briefly, 3 mL sEH assay buffer (10×) was diluted with 27 mL HPLC-grade water. This final assay buffer, 25 mM bis-tris (pH 7.0), was used in the assay and for the dilution of the soluble epoxide hydrolase (sEH) enzyme. Amounts of 12 μL each of human and mouse recombinant sEH were thawed on ice. Prior to assaying, 588 μL cold assay buffer was added directly to the enzyme vial. An amount of 190 μL assay buffer and 5 μL solvent (40% DMSO in assay buffer) were added to the background wells. In the 100% initial activity wells, 185 μL assay buffer, 5 μL sEH, and 5 μL solvent were added. In inhibitor wells, 185 μL assay buffer, 5 μL solution of the synthesized compounds, and 5 μL of recombinant enzyme solution were added.
(§1) Average fluorescence (AF) of the background wells and 100% initial activity in the wells and of each of the inhibitors were determined. The background AF was subtracted from the 100% initial activity and inhibitor AFs. The % sEH activity is calculated as (inhbitited AF/% 100 initial activity) × 100.
(§2) Multiple concentrations of the inhibitors were tested followed by plotting of the percent activity as a function of inhibitor concentration to determine the IC50 values.

[4] = biological target: T2, mouse recombinant sEH (Mus musculus, UniProt P34914); test: Fluorescence-based sEH activity assay (PHOME substrate), mouse enzyme; format: biochemical; conditions: dose-dependent assay; read-out: Mouse sEH Inhibition IC50
T2 sequence (P34914 1-554): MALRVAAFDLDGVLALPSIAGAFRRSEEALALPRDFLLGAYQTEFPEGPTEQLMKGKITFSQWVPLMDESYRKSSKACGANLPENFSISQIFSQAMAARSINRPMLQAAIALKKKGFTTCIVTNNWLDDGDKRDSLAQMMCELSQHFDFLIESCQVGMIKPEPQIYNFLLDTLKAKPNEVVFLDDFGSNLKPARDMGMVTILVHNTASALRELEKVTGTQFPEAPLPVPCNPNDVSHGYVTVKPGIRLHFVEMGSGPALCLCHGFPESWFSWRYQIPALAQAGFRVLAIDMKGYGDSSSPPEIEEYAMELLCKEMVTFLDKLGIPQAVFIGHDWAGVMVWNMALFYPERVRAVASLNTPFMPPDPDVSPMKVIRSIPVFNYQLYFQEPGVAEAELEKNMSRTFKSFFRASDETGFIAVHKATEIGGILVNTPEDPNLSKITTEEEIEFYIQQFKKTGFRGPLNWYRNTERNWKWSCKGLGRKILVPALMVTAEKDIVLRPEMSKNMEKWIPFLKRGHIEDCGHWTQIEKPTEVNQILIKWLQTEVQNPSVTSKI
Protocol: A fluorescence-based sEH activity assay provided a convenient method for screening human epoxide hydrolase inhibitors. The assay utilized (3-Phenyl-oxiranyl)-acetic acid cyano-(6-methoxy-naphthalen-2-yl)-methyl ester (PHOME) as a substrate. […] The inhibitory function of the compounds on sEH activity was tested as detailed in the product manual from Cayman Chemical. Briefly, 3 mL sEH assay buffer (10×) was diluted with 27 mL HPLC-grade water. This final assay buffer, 25 mM bis-tris (pH 7.0), was used in the assay and for the dilution of the soluble epoxide hydrolase (sEH) enzyme. Amounts of 12 μL each of human and mouse recombinant sEH were thawed on ice. Prior to assaying, 588 μL cold assay buffer was added directly to the enzyme vial. An amount of 190 μL assay buffer and 5 μL solvent (40% DMSO in assay buffer) were added to the background wells. In the 100% initial activity wells, 185 μL assay buffer, 5 μL sEH, and 5 μL solvent were added. In inhibitor wells, 185 μL assay buffer, 5 μL solution of the synthesized compounds, and 5 μL of recombinant enzyme solution were added. To start the reaction, 5 μL of PHOME was added to each well at a final concentration of 0.25 mM. The microwell plate was shaken carefully for 10 s and covered with a plate cover.
as §1, §2

[5] = In vivo pharmacokinetic experiment; parameters: species or system C57BL/6J mice; conditions: male, C57BL/6J, mouse, serum, other: oral and intraperitoneal; mice, oral and intraperitoneal administration, 10 mg/kg; read-out: plasma half-life
Protocol: Twenty 8–9-week-old male C57BL/6J mice were taken for the in vivo pharmacokinetic experiment. They were divided into four groups, each containing five mice. Each group was used for either oral or intraperitoneal administration of compound 4f or 15a. Both the compounds were reconstituted in 5% DMSO, 5% TWEEN 80 in saline water (pH = 7.4). The mice were orally and intraperitoneally administered compounds at 10 mg/kg dose. Blood samples were collected at 0, 0.5, 1, 2, 4, 6, and 24 h after administration of the compound, and serum was isolated with the compound. For the pharmacokinetic study, 10 μL of serum samples from mice were extracted with a 2:1 mixture of LC/MS-grade chloroform and methanol, followed by intermittent vortexing, and then centrifuged at 4000 rpm for 10 min at 4 °C. Thereafter, the supernatant was collected and analyzed by LC−MS/MS to measure the concentrations of compounds 4f and 15a in the serum.

Question: Which “analgesic effect in hot plate assay” value [1] does the source give for O=C(O)CCCCCCCCCCCNC(=O)NC12CC3CC(CC(C3)C1)C2 [AUDA, 12-(3-adamantan-1-ylureido)dodecanoic acid, reference compound] here?
Answer: none of the sEH inhibitors, including AUDA, showed any analgesic effect

Question: What about the “effect on LPS-induced increase in total protein in BALF” value [2] of the same compound?
Answer: neither AUDA nor novel sEH inhibitors’ (4f and 4l) effect

Question: What about the “number of cells in bronchoalveolar lavage (BAL)” value [2] of the same compound?
Answer: similarly attenuated the number of cells in BAL

Question: And the “LPS-induced lung gene expression of interleukin 1B (IL-1B)” value ([2]; qPCR)?
Answer: attenuated

Question: What about the “LPS-induced lung gene expression of interleukin 6 (IL-6)” value ([2]; qPCR) of the same compound?
Answer: attenuated

Question: And the “lung gene expression of CXCL1” value ([2]; qPCR)?
Answer: similarly attenuated

Question: For O=S(=O)(NC(=S)NC12CC3CC(CC(C3)C1)C2)c1ccccc1 [Compound 6a, N-((adamantan-1-yl)carbamothioyl)benzenesulfonamide], which “Human sEH % Inhibition” value [3] is on record?
Answer: 84.56%

Question: And the IC50 [3]?
Answer: 130 nM

Question: What about the IC50 [4] of the same compound?
Answer: > 1000 nM

Question: For Cc1ccc(S(=O)(=O)NC(=O)NC23CC4CC(CC(C4)C2)C3)cc1 [Compound 4b, N-((adamantan-1-yl)carbamoyl)-4-methylbenzenesulfonamide], which “Human sEH % Inhibition” value [3] is on record?
Answer: 91.78%

Question: And the IC50 [3]?
Answer: 16.3 nM

Question: And the IC50 [4]?
Answer: 850 nM

Question: With CC12CC3CC(C)(C1)CC(NC(=O)NS(=O)(=O)c1ccc4ccccc4c1)(C3)C2 [Compound 15b, N-((3,5-dimethyladamantan-1-yl)carbamoyl)naphthalene-2-sulfonamide] as the compound, how does the “Human sEH % Inhibition” value [3] read?
Answer: 47.05%

Question: And the IC50 [3]?
Answer: 950 nM

Question: And the IC50 [4]?
Answer: > 1000 nM

Question: Which “Human sEH % Inhibition” value [3] does the source give for O=C(NC12CC3CC(CC(C3)C1)C2)NS(=O)(=O)c1ccccc1 [Compound 4a] here?
Answer: 93.61%

Question: And the IC50 [3]?
Answer: 100 nM

Question: What about the IC50 [4] of the same compound?
Answer: > 1000 nM

Question: With O=C(NC12CC3CC(CC(C3)C1)C2)NS(=O)(=O)c1ccc(F)cc1 [Compound 4j] as the compound, how does the “Human sEH % Inhibition” value [3] read?
Answer: 85.26%

Question: And the IC50 [3]?
Answer: 120 nM

Question: What about the IC50 [4] of the same compound?
Answer: > 1000 nM

Question: What does the source list for O=C(NC12CC3CC(CC(C3)C1)C2)NS(=O)(=O)c1ccc(Cl)cc1 [Compound 4k]?
Answer: Human sEH % Inhibition [3]: 96.47%; IC50 [3]: 2 nM; IC50 [4]: > 1000 nM

Question: What does the source list for CC12CC3CC(C)(C1)CC(NC(=O)NS(=O)(=O)c1ccc(OC(F)(F)F)cc1)(C3)C2 [Compound 15a, N-((3,5-dimethyladamantan-1-yl)carbamoyl)-4-(trifluoromethoxy)benzenesulfonamide]?
Answer: Human sEH % Inhibition [3]: 92.06%; IC50 [3]: 3.87 nM; IC50 [4]: 22 nM; half-life [5]: < 120 min
